Results: ChEMBL document CHEMBL1806478, “Synthesis of novel inhibitors of β-glucuronidase based on benzothiazole skeleton and study of their binding affinity by molecular docking” (Bioorg Med Chem, 2011)
The source made the active and inactive calls. The rule behind the calls is not given here.

Experiments:
Beta-glucuronidase = target: T1, Beta-glucuronidase (Bos taurus, UniProt A3KMY8); assay: (§1) Inhibition of bovine liver beta glucuronidase assessed as p-nitrophenol formation after 30 mins by spectrophotometric method
T1 sequence (A3KMY8 whole entry): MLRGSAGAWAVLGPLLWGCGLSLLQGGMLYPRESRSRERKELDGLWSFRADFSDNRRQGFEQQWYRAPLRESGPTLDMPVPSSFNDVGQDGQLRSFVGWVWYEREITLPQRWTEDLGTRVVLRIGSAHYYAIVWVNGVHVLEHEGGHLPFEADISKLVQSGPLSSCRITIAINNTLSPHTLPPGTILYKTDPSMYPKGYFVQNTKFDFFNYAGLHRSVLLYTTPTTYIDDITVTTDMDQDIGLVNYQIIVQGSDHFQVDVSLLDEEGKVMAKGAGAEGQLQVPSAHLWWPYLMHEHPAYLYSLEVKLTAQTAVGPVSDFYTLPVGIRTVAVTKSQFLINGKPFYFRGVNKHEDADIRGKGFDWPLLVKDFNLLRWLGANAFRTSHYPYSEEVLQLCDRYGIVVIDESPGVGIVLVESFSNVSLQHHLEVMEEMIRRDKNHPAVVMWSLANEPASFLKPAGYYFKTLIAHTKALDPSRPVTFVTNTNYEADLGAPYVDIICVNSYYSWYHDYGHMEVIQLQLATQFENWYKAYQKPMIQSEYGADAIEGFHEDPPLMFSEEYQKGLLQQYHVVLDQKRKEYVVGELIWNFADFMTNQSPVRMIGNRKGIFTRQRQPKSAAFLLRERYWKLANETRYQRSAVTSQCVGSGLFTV

[1] = Inhibition of alpha-chymotrypsin
[2] = Inhibition of urease
3T3-L1 = assay: Cytotoxic activity against mouse 3T3L1 cells assessed as cell viability at 1 to 20 ug/ml after 48 hrs by MTT assay; assay type: cell-based; conditions: 3t3-l1, 48 h
CC-1 = assay: Cytotoxic activity against Wistar rat CC1 cells assessed as cell viability at 1 to 20 ug/ml after 48 hrs by MTT assay; assay type: cell-based; conditions: cc-1, 48 h
[3] = target: T2, Beta-glucuronidase (Bos taurus) (UniProt A3KMY8); assay: as §1
T2 sequence (whole entry): T1 sequence (A3KMY8 whole entry)

[4] = target: T2, Beta-glucuronidase (Bos taurus); assay: Ratio of D-saccharic acid 1,4-lactone IC50 to compound IC50 for bovine liver beta glucuronidase
[5] = target: T2, Beta-glucuronidase (Bos taurus); assay: Inhibition of bovine liver beta glucuronidase assessed as p-nitrophenol formation at 0.2 mM after 30 mins by spectrophotometric method

Structure (SMILES)	IC50 (Beta-glucuronidase) [µM]	inhibition [1]	inhibition [2]	inhibition [3]	Ratio IC50 [4]	inhibition [5] [%]	Activity (3T3-L1)	Activity (CC-1)
Oc1ccc(-c2nc3ccccc3s2)cc1O	94	inactive	inactive				Non-toxic	Non-toxic
COc1ccc(-c2nc3ccccc3s2)cc1OC		inactive	inactive	inactive				
Oc1ccccc1-c1nc2ccccc2s1	4.23	inactive	inactive		12		Non-toxic	Non-toxic
CCOc1ccc(-c2nc3ccccc3s2)cc1		inactive	inactive	inactive				
CN(C)c1ccc(-c2nc3ccccc3s2)cc1		inactive	inactive	inactive				
Cc1ccccc1-c1nc2ccccc2s1		inactive	inactive			< 50		
Cc1ccc(-c2nc3ccccc3s2)cc1		inactive	inactive			< 50		
Oc1cc(O)c(-c2nc3ccccc3s2)cc1O	2.26	inactive	inactive		24		Non-toxic	Non-toxic
Brc1ccc(-c2nc3ccccc3s2)cc1		inactive	inactive	inactive				
Oc1ccc(-c2nc3ccccc3s2)cc1	8.9	inactive	inactive				Non-toxic	Non-toxic
Oc1cccc(-c2nc3ccccc3s2)c1	36.1	inactive	inactive				Non-toxic	Non-toxic
c1cncc(-c2nc3ccccc3s2)c1		inactive	inactive	inactive				
Oc1cccc(-c2nc3ccccc3s2)c1O		inactive	inactive			< 50		
CCOc1cccc(-c2nc3ccccc3s2)c1O		inactive	inactive	inactive				
COc1cccc(-c2nc3ccccc3s2)c1O		inactive	inactive			< 50		
c1ccc2sc(-c3ccncc3)nc2c1		inactive	inactive			< 50		
c1csc(-c2nc3ccccc3s2)c1		inactive	inactive			< 50		
c1ccc2cc(-c3nc4ccccc4s3)ccc2c1		inactive	inactive			< 50		

Continued, in another order:

IC50 (Beta-glucuronidase) [µM]	inhibition [1]	inhibition [2]	inhibition [3]	Ratio IC50 [4]	inhibition [5] [%]	Structure (SMILES)	Activity (3T3-L1)	Activity (CC-1)
19.4	inactive	inactive				Oc1ccc(-c2nc3ccccc3s2)c(O)c1	Non-toxic	Non-toxic
	inactive	inactive	inactive			Clc1ccc(-c2nc3ccccc3s2)c(Cl)c1		
	inactive	inactive	inactive			Fc1ccccc1-c1nc2ccccc2s1		
	inactive	inactive			< 50	Clc1cccc(-c2nc3ccccc3s2)c1		
	inactive	inactive			< 50	Clc1ccc(-c2nc3ccccc3s2)cc1		
	inactive	inactive			< 50	Clc1ccc(-c2nc3ccccc3s2)cc1Cl		
	inactive	inactive			< 50	Oc1ccc(Cl)cc1-c1nc2ccccc2s1		
8.9	inactive	inactive				Oc1ccc(O)c(-c2nc3ccccc3s2)c1	Non-toxic	Non-toxic
